Assay results: publication PMC3758303 (PLoS ONE, 2013)

Tests used:
[1] = system: genome-length HCV-RNA (O strain of genotype 1b) replication in Li23-derived ORL11 cells; set-up: method as in PMID 21320556; conditions: 10 µM, ORL11 assay; cited from earlier work
[2] = system: genome-length HCV-RNA (O strain of genotype 1b) replication in HuH-7-derived OR6 cells; set-up: method as in PMID 21320556; conditions: 10 µM, OR6 assay; cited from earlier work
[3] = system: genome-length HCV-RNA (O strain of genotype 1b) replication in Li23-derived ORL8 cells; set-up: method as in PMID 21320556; conditions: 10 µM, ORL8 assay; cited from earlier work
[4] = system: HCV-RNA replication in ORL8 cells; assay: Effect of VE on anti-HCV activity, ORL8 RL assay; type: cell-based, hepatitis C virus; conditions: 72 hrs
Method: After treatment, an RL assay of harvested ORL8 cell samples was performed. (B, D, and F) The ratio of RL activity in the presence of VE to the RL activity in the absence of VE. The above ratio was calculated from the data of (A, C, and E). […] (G) Western blot analysis was performed as described in Fig. 1B.
(§1) The ORL8 cells were treated with N-89 or IFN-α, and then RL assays were performed at 2 to 72 hrs after the treatment. The relative value (%) calculated at each time point, when the luciferase activity of non-treated cells at 24 hrs was assigned as 100%, is shown. Data are expressed as the means±standard deviation of triplicate assays. […] To evaluate this possibility, we examined the effect of VE on N-89 at the EC90 level in the ORL8 assay.

[5] = system: HCV-RNA replication in ORL8 cells; assay: Comparative time course RL assay in ORL8 cells; type: cell-based, hepatitis C virus; conditions: 1 IU/ml
Method: We next performed a time course assay (2 to 72 hrs after treatment) in the case of ORL8 cells treated with N-89 (0.1 µM or 1 µM) or IFN-α (1 IU/ml; corresponding to approximately EC80). ORL8 cells treated with IFN-α (1 IU/ml) and N-89 (1 µM) had almost the same anti-HCV kinetics over the first […] after treatment (upper panel of Fig. 4); however, within the first 12 hrs after treatment N-89-treated ORL8 cells had more rapid anti-HCV kinetics than did the IFN-α-treated cells (lower panel of Fig. 4).
as §1, with “Figure 4 The anti-HCV action of N-89 was faster than that of IFN-α. The ORL8” for “The ORL8”, “ORL8 assay. […] Similar results were obtained by using N-251 (Fig. 5C and D). […] However, an antimalarial drug, artemisinin, was hardly influenced by co-treatment with VE (Fig. 5E). The value (1.9) of artemisinin was almost the same as that (3.5 or 2.5) of IFN-α or the control, respectively (Fig. 5F).” for “ORL8 assay.”

[6] = system: genome-length HCV-RNA (O strain of genotype 1b) replication in Li23-derived ORL8 cells; assay: ORL8 RL assay; type: cell-based, hepatitis C virus; conditions: ORL8 cells
Method: RSc and D7 cells were derived from the cell lines HuH-7 and Li23, respectively, were cultured as described previously, [29]. HuH-7-derived OR6 [13], AH1R [30], and 1B-4R [Ikeda et al., submitted] cells harboring genome-length HCV-RNA and HuH-7-derived polyclonal sOR [31], and RSc-JRN/35B [Ikeda et al., submitted] cells harboring an HCV subgenomic replicon were cultured with medium in the presence of G418 (0.3 mg/ml; Geneticin, Invitrogen, Carlsbad, CA) as described previously. Li23-derived ORL8 [20], ORL11 [20], 1B-4RL [Ikeda et al., submitted], and KAH5RL [Ikeda et al., submitted] cells harboring genome-length HCV-RNA were maintained with medium in the presence of G418 (0.3 mg/ml) as described previously. Li23-derived polyclonal sORL8 and sORL11 cells harboring an HCV replicon, which were established by the transfection of ORN/3-5B/QR,KE,SR RNA into the cured OL8 and OL11 cells, respectively, were also cultured with medium in the presence of G418 (0.3 mg/ml) as described previously. […] Therefore, when HCV-RNA is excluded from the cells or when its level is decreased, the cells are killed in the presence of G418.
RL assay was performed as described previously, [24]. Briefly, the cells were plated onto 24-well plates (2×10^4 cells per well) in triplicate and then treated with each reagent at several concentrations for 72 hrs. After treatment, the cells were subjected to luciferase assay using the RL assay system (Promega, Madison, WI). The experiments were performed at least in triplicate. From the assay results, the 50% effective concentration (EC50) of each reagent was determined.
The SI value of each reagent was determined by dividing the CC50 value by the EC50 value.

[7] = system: HCV-RNA replication; set-up: method as in PMID 21620801, PMID 16875675; conditions: cited from earlier work
[8] = reagent at expected EC90, Fig. 5F (control 2.5)

Molecule	inhibition of HCV-RNA replication [1]	inhibition of HCV-RNA replication [2]	inhibition of HCV-RNA replication [3]	VE 10μM(+) / VE 10μM(-) ratio of RL activity ([4]; reagent at expected EC90, Fig. 5B (control 3.0))	VE 10μM(+) / VE 10μM(-) ratio of RL activity ([4]; reagent at expected EC90, Fig. 5D (control 2.3))	VE 10μM(+) / VE 10μM(-) ratio of RL activity [4, 8]	time after treatment at which a decrease of RL activity began to be seen [5]	EC80 [6]	anti-HCV activity [7]
NC(=O)c1ncn([C@@H]2O[C@H](CO)[C@@H](O)[C@H]2O)n1 [RBV, ribavirin]	efficiently inhibited HCV-RNA replication	not in the OR6 assay	efficiently inhibited HCV-RNA replication						
IFN-α				3.2	4.3	3.5	12 h	~1 IU/ml	
C[C@@H]1CC[C@H]2[C@@H](C)C(=O)O[C@@H]3O[C@@]4(C)CC[C@@H]1[C@]32OO4 [Artemisinin, reference compound]						1.9			weak anti-HCV activity
